Measurements as given in US10792289B2 (Horizon Orphan LLC, priority 2009, dated 2020).
Converted amounts (≈) assume the structure as drawn. Read-outs that look alike come from different tables or passages of the source.

Columns and labels:
stable CF patients [1] = test: Phase 2 study: CFQ-R questionnaire; assay type: in vivo, human; conditions: for CFQ-R respiratory, mean change from baseline: MITT, Baseline to Day 28
Experimental: (§1) The following dosage regimens (as nebulizer loaded doses) were evaluated: 120 mg QD (daily); 240 mg QD (daily); and 240 mg BID (twice daily).
(§2) Patients were assessed on Day 1, 7, 14, and 28, and then up to 28 days after completion of study drug, namely, Days 42 and 56. The end of the study was defined as the last visit of the last patient.
Efficacy was evaluated by microbiologic assessment of sputum samples, time to need for anti-pseudomonal antimicrobials, the Cystic Fibrosis Questionaire-Revised (CFQ-R), and pulmonary function tests. […] Pair-wise comparisons between all the treatment arms were conducted as secondary analyses.
Patients completed the CFQ-R questionnaire with domains that included: respiratory, body image, digestion, eating, emotion, health perception, physical, role/school, social, treatment burden, vitality, and weight.

B. cepacia = test: Levofloxacin MIC against B. cepacia; assay type: cell-based; conditions: Burkholderia cepacia
stable CF patients [2] = test: Phase 2 study: safety, adverse events, discontinuation; assay type: in vivo, human
Experimental: as §1, §2
Adverse events and drug intolerability from Day 1 through the end of study were evaluated.

stable CF patients [3] = test: Phase 2 study: time to need for anti-pseudomonal antimicrobials; assay type: in vivo, human; conditions: for Patients Requiring Anti-Pseudomonal Antimicrobials: EE population; for Number (%) of Patients Requiring Anti-Pseudomonal Antimicrobials: MITT population
Experimental: as §1
Efficacy endpoints including clinical endpoints, pulmonary function tests, and additional microbiological parameters were assessed as change from Day 1 to subsequent visits where the endpoint data was collected. Time to need for intravenous/oral/inhaled anti-pseudomonal antimicrobials were assessed from Day 1 until final visit using survival analysis. The primary population for efficacy analysis was the EE population, but efficacy endpoints were also analyzed using the MITT population.
Time to administration of intravenous/oral/inhaled anti-pseudomonal antimicrobials from Day 1 until Final visit was measured for patients with at least one of the following: decreased exercise tolerance, increased cough, increased sputum/chest congestion, and decreased appetite. The proportion of patients requiring anti-pseudomonal antimicrobials (inhaled or systemic) over time was analyzed using a Cox proportional hazards model.

[4] = MITT population, 240 mg BID vs Placebo, baseline to visit 4
[5] = MITT population, 240 mg BID, baseline to visit 4
[6] = MITT population, Combined 240 mg QD and BID

Compound: C[C@H]1COc2c(N3CCN(C)CC3)c(F)cc3c(=O)c(C(=O)O)cn1c23 [Levofloxacin, levofloxacin]
- CFQ-R Physical, LS Mean Difference (stable CF patients [1]; [4]): 5.94
- CFQ-R Respiratory, LS Mean Difference (stable CF patients [1]; [4]): 4.50
- CFQ-R Role/School, LS Mean Difference (stable CF patients [1]; [4]): −0.53
- CFQ-R Social, LS Mean Difference (stable CF patients [1]; [4]): 2.37
- CFQ-R Treatment Burden, LS Mean Difference (stable CF patients [1]; [4]): 0.06
- CFQ-R Vitality, LS Mean Difference (stable CF patients [1]; [4]): 3.11
- CFQ-R Weight, LS Mean Difference (stable CF patients [1]; [4]): 5.4
- CFQ-R Body Image, LS Mean Change from Baseline (stable CF patients [1]; [5]): 0.34
- CFQ-R Digestion, LS Mean Change from Baseline (stable CF patients [1]; [5]): 1.11
- CFQ-R Eating, LS Mean Change from Baseline (stable CF patients [1]; [5]): 2.41
- CFQ-R Emotion, LS Mean Change from Baseline (stable CF patients [1]; [5]): 2.22
- CFQ-R Health Perception, LS Mean Change from Baseline (stable CF patients [1]; [5]): 0.52
- CFQ-R Physical, LS Mean Change from Baseline (stable CF patients [1]; [5]): 3.14
- CFQ-R Respiratory, LS Mean Change from Baseline (stable CF patients [1]; [5]): 4.06
- CFQ-R Role/School, LS Mean Change from Baseline (stable CF patients [1]; [5]): −1.94
- CFQ-R Social, LS Mean Change from Baseline (stable CF patients [1]; [5]): 0.69
- CFQ-R Treatment Burden, LS Mean Change from Baseline (stable CF patients [1]; [5]): −0.93
- CFQ-R Vitality, LS Mean Change from Baseline (stable CF patients [1]; [5]): 1.23
- CFQ-R Weight, LS Mean Change from Baseline (stable CF patients [1]; [5]): 10.06
- Respiratory domain of CFQ-R, Change from Baseline to Day 14, Mean (stable CF patients [1]; MITT population, 240 mg QD): 1.4
- Respiratory domain of CFQ-R, Change from Baseline to Day 14, Median (stable CF patients [1]; MITT population, 240 mg QD): 0.0
- Respiratory domain of CFQ-R, Change from Baseline to Day 28, Mean (stable CF patients [1]; MITT population, 240 mg QD): 0.3
- Respiratory domain of CFQ-R, Change from Baseline to Day 28, Median (stable CF patients [1]; MITT population, 240 mg QD): 0.0
- Respiratory domain of CFQ-R, Day 1, Mean (stable CF patients [1]; MITT population, 240 mg QD): 61.3
- Respiratory domain of CFQ-R, Day 1, Median (stable CF patients [1]; MITT population, 240 mg QD): 61.1
- Respiratory domain of CFQ-R, Day 14, Mean (stable CF patients [1]; MITT population, 240 mg QD): 63.0
- Respiratory domain of CFQ-R, Day 14, Median (stable CF patients [1]; MITT population, 240 mg QD): 66.7
- Respiratory domain of CFQ-R, Day 28, Mean (stable CF patients [1]; MITT population, 240 mg QD): 61.6
- Respiratory domain of CFQ-R, Day 28, Median (stable CF patients [1]; MITT population, 240 mg QD): 66.7
- Respiratory domain of CFQ-R, Change from Baseline to Day 14, Mean (stable CF patients [1]; [6]): 4.5
- Respiratory domain of CFQ-R, Change from Baseline to Day 14, Median (stable CF patients [1]; [6]): 5.5
- Respiratory domain of CFQ-R, Change from Baseline to Day 28, Mean (stable CF patients [1]; [6]): 1.7
- Respiratory domain of CFQ-R, Change from Baseline to Day 28, Median (stable CF patients [1]; [6]): 0.0
- Respiratory domain of CFQ-R, Day 1, Mean (stable CF patients [1]; [6]): 60.9
- Respiratory domain of CFQ-R, Day 1, Median (stable CF patients [1]; [6]): 61.1
- Respiratory domain of CFQ-R, Day 14, Mean (stable CF patients [1]; [6]): 65.8
- Respiratory domain of CFQ-R, Day 14, Median (stable CF patients [1]; [6]): 69.4
- Respiratory domain of CFQ-R, Day 28, Mean (stable CF patients [1]; [6]): 63.0
- Respiratory domain of CFQ-R, Day 28, Median (stable CF patients [1]; [6]): 66.7
- CFQ-R respiratory, mean change from baseline (stable CF patients [1]; 120 mg QD): 0.3 units
- CFQ-R respiratory, mean change from baseline (stable CF patients [1]; 240 mg BID): 1.7 units
- CFQ-R respiratory, mean change from baseline (stable CF patients [1]; 240 mg QD): 3.0 units
- MIC (B. cepacia): > 128 µg/mL
- MIC (B. cepacia; five strains tested in mouse model, read-out: MICs of five B. cepacia strains): 0.25 to 8 µg/mL (≈ 0.692 to 22.1 µM)
- MIC (B. cepacia; strain BC1012, read-out: MIC): 4 µg/mL (≈ 11.1 µM)
- MIC (B. cepacia; strain BC1013, read-out: MIC): 0.25 µg/mL (≈ 0.692 µM)
- MIC (B. cepacia; strain BC1014, read-out: MIC): 1 µg/mL (≈ 2.77 µM)
- MIC (B. cepacia; strain BC1020, read-out: MIC): 8 µg/mL (≈ 22.1 µM)
- MIC (B. cepacia; strain BC1021, read-out: MIC): 8 µg/mL (≈ 22.1 µM)
- Discontinuation from study, primary reason adverse event, patients (%) (stable CF patients [2]; 120 mg QD): 1 (2.6%)
- Study drug discontinuation, adverse event, patients (%) (stable CF patients [2]; 120 mg QD): 3 (7.9%)
- Study drug discontinuation, patients (%) (stable CF patients [2]; 120 mg QD): 3 (7.9%)
- Discontinuation from study, primary reason adverse event, patients (%) (stable CF patients [2]; 240 mg BID): 2 (5.1%)
- Study drug discontinuation, adverse event, patients (%) (stable CF patients [2]; 240 mg BID): 2 (5.1%)
- Study drug discontinuation, patients (%) (stable CF patients [2]; 240 mg BID): 2 (5.1%)
- Discontinuation from study, primary reason adverse event, patients (%) (stable CF patients [2]; 240 mg QD): 1 (2.7%)
- Study drug discontinuation, adverse event, patients (%) (stable CF patients [2]; 240 mg QD): 1 (2.7%)
- Study drug discontinuation, patients (%) (stable CF patients [2]; 240 mg QD): 1 (2.7%)
- Significant adverse events (stable CF patients [2]; Day 1 through the end of study): No significant adverse events were reported
- Patients Requiring Anti-Pseudomonal Antimicrobials (stable CF patients [3]; 120 mg QD): 20.0%
- Patients Requiring Anti-Pseudomonal Antimicrobials (stable CF patients [3]; 240 mg BID): 20.6%
- Patients Requiring Anti-Pseudomonal Antimicrobials (stable CF patients [3]; 240 mg QD): 25.7%
- Patients Requiring Anti-Pseudomonal Antimicrobials (stable CF patients [3]; Combined 240 mg QD and BID): 23.2%
- Number (%) of Patients Requiring Anti-Pseudomonal Antimicrobials (stable CF patients [3]; 120 mg QD): 18.4%
- Number (%) of Patients Requiring Anti-Pseudomonal Antimicrobials (stable CF patients [3]; 240 mg BID): 20.5%
- Number (%) of Patients Requiring Anti-Pseudomonal Antimicrobials (stable CF patients [3]; 240 mg QD): 27.0%
- Number (%) of Patients Requiring Anti-Pseudomonal Antimicrobials (stable CF patients [3]; Combined 240 mg QD and BID): 23.7%
